# Experimental data from patent publication US20110160121A1, “UNACYLATED GHRELIN AND ANALOGS AS THERAPEUTIC AGENTS FOR VASCULAR REMODELING IN DIABETIC PATIENTS AND TREATMENT OF CARDIOVASCULAR DISEASE” (ALIZE PHARMA SAS, priority 2008, published 2011).
# Where no end group is shown, it is not given here.
# Columns and labels:
# GHSR-1a = GHSR-1a (Homo sapiens, UniProt Q92847); conditions: Ref. 7; cited from earlier work
# CAC [1] = test: Senescence of CAC recovered from type 2 diabetic patients treated with UAG; design: species or system human; conditions: UAG administered in vivo, CAC recovered after 12 hours, FIG. 2D
# Protocol: After 12 hours of treatment, CAC were recovered from UAG treated and untreated patients and cultured.
# All the subjects underwent the following testing session: • UAG (3.0 μg/kg/h iv. as infusion for 12 h from 0 to 12 hours); • isotonic saline (infusion from 0 to 12 hours).
# (§1) CAC Senescence—Senescence was evaluated by acidic β-gal activity on CAC recovered from normal subjects cultured in EGM2 medium for 4 days with UAG or AGE+UAG and saline- or UAG-treated diabetic patients (Ref. 22). Briefly, CAC were washed in phosphate-buffered saline, fixed for 3 min at room temperature in 2% paraformaldehyde, washed, and incubated for 24 h at 37° C. with fresh SA-β-gal stain solution: 1 mg/ml 5-bromo-4-chloro-3-indolyl β-D-galactopyranoside (X-gal), 5 mM/liter potassium ferrocyanide, 5 mM/liter ferricyanide, 150 mM/liter NaCl, 2 mM/liter MgCl2, 0.01% sodium deoxycholate, and 0.02% Nonidet P-40. SA-β-gal-positive cells were counted manually by 3 independent investigators.
# CAC [2] = test: Expansion and arterial commitment of CAC recovered from UAG-challenged mice, cultured with IL-3; type: in vivo, mouse
# Protocol: After treatment, cells were recovered, assayed by FACS analysis, counted and cultured. […] Black lines refer to preimmune IgG used as negative control and grey lines refer to surface marker expression. Similar results were obtained when CAC from untreated diabetic mice as well as untreated or treated wild-type mice were analyzed (data not shown).
# RNA isolation and quantitative real-time PCR—CAC from diabetic patients, healthy subjects and mice treated with UAG or saline were cultured in EGM-2 medium. Human arterial and venous cells were used as a positive controls. mRNA quantification was performed by Q-RT-PCR, as previously described (Ref. 24). The relative expression of Ephrin B2, Notch1, Notch4 and EphB4 were calculated by using comparative threshold cycle methods. The human and murine primer sequences used were described (Refs. 25, 26).
# Flow Cytometry—To analyze CAC cell-cycle progression, cells recovered from diabetic, healthy subjects, NOD/SCID, ob/ob and wt mice, were cultured in EBM-2 supplemented with IL-3 (10 ng/ml), FACS analysis was performed as previously described (Ref. 20). Cell surface molecules were evaluated by flow cytometry as previously described (Ref. 24). Frequency of marker-positive cells is expressed as mean±standard deviation (SD). […]
# CAC [3] = test: CAC senescence (acidic beta-gal / SA-beta-gal activity) in cultured CAC; type: cell-based, human; conditions: FIG. 2A
# Protocol: To this end, the effect of AGE treatment, alone or in combination with UAG, was first evaluated on SA-β-gal activity. […] In addition, AGE-induced p53 accumulation and senescent like-growth arrest were prevented by silencing p53 (FIG. 2C).
# as §1
# Chain of GHSR-1a (Q92847 whole entry): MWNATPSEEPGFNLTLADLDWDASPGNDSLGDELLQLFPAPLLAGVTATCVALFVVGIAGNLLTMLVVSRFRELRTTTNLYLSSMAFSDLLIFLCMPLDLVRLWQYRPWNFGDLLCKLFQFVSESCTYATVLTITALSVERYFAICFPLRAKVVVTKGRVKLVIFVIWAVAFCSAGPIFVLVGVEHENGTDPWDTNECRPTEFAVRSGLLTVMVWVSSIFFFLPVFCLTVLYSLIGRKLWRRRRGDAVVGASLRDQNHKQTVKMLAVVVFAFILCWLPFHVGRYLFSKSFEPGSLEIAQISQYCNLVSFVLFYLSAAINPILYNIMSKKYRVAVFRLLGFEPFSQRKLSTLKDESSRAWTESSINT
substance,measurement,setting,value
1-NH2Gly-Ser-Ser-Phe-Leu-Ser-Pro-Glu-His-Gln-Arg-Val-Gln-Gln-Arg-Lys-Glu-Ser-Lys-Lys-Pro-Pro-Ala-Lys-Leu-Gln-Pro-Arg-28 (H-GSSFLSPEHQRVQQRKESKKPPAKLQPR; ends and bridges not checked; listed as Homo sapiens) [UAG],binding to GHSR-1a,GHSR-1a,fails to bind GHSR-1a
same,number of senescent cells,CAC [1],reduced the number of senescent cells
same,arterial commitment of recovered CAC,"CAC [2]; CAC from UAG-challenged mice cultured in the presence of IL-3, FIG. 4D",acquire arterial commitment
same,expansion of recovered CAC,"CAC [2]; CAC from UAG-challenged mice, FIG. 4C",could be expanded
same,number of SA-beta-gal positive cells,CAC [3]; UAG added to AGE-cultured CAC,significant reduction in the number of SA-β-gal positive cells
same,number of senescent cells (SA-beta-gal activity),"CAC [3]; cultured CAC, UAG alone",reduce the number of senescent cells
